#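 96-well plates; 48 h exposure; 5 concentrations. Endpoints by linear interpolation between flanking doses. Not reached: highest tested concentration assigned. Definition used: TGI = concentration required for complete inhibition of growth.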
# What was measured:
# Test in all cases: NCI tumour cell line growth inhibition, 48 h
# [1] = system: SK-OV-3 ovarian
# [2] = system: SF-268 CNS
# [3] = system: NCI/ADR-RES ovarian
# [4] = system: NCI-H460 lung
# [5] = system: ACHN renal
# [6] = system: HCT-15 colon
# [7] = system: UO-31 renal
# [8] = system: SK-MEL-2 melanoma
# [9] = system: IGROV1 ovarian
# [10] = system: A549 NSCLC
# [11] = system: K-562 leukemia
# [12] = system: U251 CNS
# [13] = system: NCI-H23 lung
# [14] = system: BT-549 breast
# [15] = system: OVCAR-4 ovarian
# [16] = system: M14 melanoma
# [17] = system: HS 578T breast
# [18] = system: LOX IMVI melanoma
# [19] = system: MDA-MB-435
# [20] = system: PC-3 prostate
# [21] = system: SK-MEL-5 melanoma
# [22] = system: MALME-3M melanoma
# [23] = system: HOP-92 NSCLC
# [24] = system: MDA-N
# [25] = system: NCI-H226 lung
# [26] = system: DU-145 prostate
# [27] = system: MOLT-4 leukemia
# [28] = system: 786-0 renal
# [29] = system: SNB-19 CNS
# [30] = system: EKVX NSCLC
# [31] = system: MCF7 breast
# [32] = system: CCRF-CEM leukemia
# [33] = system: SR leukemia
# [34] = system: SW-620 colon
# [35] = system: HT29 colon
# [36] = system: TK-10 renal
# [37] = system: SNB-75 CNS
# [38] = system: UACC-257 melanoma
# [39] = system: CAKI-1 renal
# [40] = system: OVCAR-8 ovarian
# [41] = system: OVCAR-3 ovarian
# [42] = system: NCI-H522 lung
# [43] = system: COLO 205 colon
# [44] = system: MDA-MB-231 breast
# [45] = system: OVCAR-5 ovarian
# [46] = system: SK-MEL-28 melanoma
# [47] = system: SF-295 CNS
# [48] = system: HCC-2998 colon
# [49] = system: HL-60(TB) leukemia
# [50] = system: KM12 colon
# [51] = system: SN12C renal
# [52] = system: HCT-116 colon
# [53] = system: T-47D breast
# [54] = system: UACC-62 melanoma
# [55] = system: SF-539 CNS
# [56] = system: A498 renal
# [57] = system: RPMI-8226 leukemia
# [58] = system: HOP-62 NSCLC
# [59] = system: RXF 393 renal
smiles,measurement,setting,value
COc1cc2c(cc1OC)C1Cc3ccccc3CCN1CC2 (stereo not given),TGI,[1],> 100 µM
same,TGI,[2],> 100 µM
same,TGI,[3],> 100 µM
same,TGI,[4],> 100 µM
same,TGI,[5],> 100 µM
same,TGI,[6],> 100 µM
same,TGI,[7],> 100 µM
same,TGI,[8],> 100 µM
same,TGI,[9],> 100 µM
same,TGI,[10],> 100 µM
same,TGI,[11],> 100 µM
same,TGI,[12],> 100 µM
same,TGI,[13],> 100 µM
same,TGI,[14],> 100 µM
same,TGI,[15],> 100 µM
same,TGI,[16],> 100 µM
same,TGI,[17],> 100 µM
same,TGI,[18],> 100 µM
same,TGI,[19],> 100 µM
same,TGI,[20],> 100 µM
same,TGI,[21],> 100 µM
same,TGI,[22],> 100 µM
same,TGI,[23],> 100 µM
same,TGI,[24],> 100 µM
same,TGI,[25],> 100 µM
same,TGI,[26],> 100 µM
same,TGI,[27],> 100 µM
same,TGI,[28],> 100 µM
same,TGI,[29],> 100 µM
same,TGI,[30],> 100 µM
same,TGI,[31],> 100 µM
same,TGI,[32],> 100 µM
same,TGI,[33],> 100 µM
same,TGI,[34],> 100 µM
same,TGI,[35],> 100 µM
same,TGI,[36],> 100 µM
same,TGI,[37],> 100 µM
same,TGI,[38],> 100 µM
same,TGI,[39],> 100 µM
same,TGI,[40],> 100 µM
same,TGI,[41],> 100 µM
same,TGI,[42],> 100 µM
same,TGI,[43],> 100 µM
same,TGI,[44],> 100 µM
same,TGI,[45],> 100 µM
same,TGI,[46],> 100 µM
same,TGI,[47],> 100 µM
same,TGI,[48],> 100 µM
same,TGI,[49],> 100 µM
same,TGI,[50],> 100 µM
same,TGI,[51],> 100 µM
same,TGI,[52],> 100 µM
same,TGI,[53],> 100 µM
same,TGI,[54],> 100 µM
same,TGI,[55],> 100 µM
same,TGI,[56],> 100 µM
same,TGI,[57],> 100 µM
same,TGI,[58],> 100 µM
COc1c(Cl)ccc(Cl)c1C(=O)NNC(=O)c1c(Cl)c(Cl)c(Cl)c(Cl)c1-c1nc2ccc(C(=O)c3ccccc3)cc2[nH]1,TGI,[1],> 100 µM
same,TGI,[2],> 100 µM
same,TGI,[3],> 100 µM
same,TGI,[5],> 100 µM
same,TGI,[6],> 100 µM
same,TGI,[7],> 100 µM
same,TGI,[8],> 100 µM
same,TGI,[9],> 100 µM
same,TGI,[10],> 100 µM
same,TGI,[11],> 100 µM
same,TGI,[12],> 100 µM
same,TGI,[13],> 100 µM
same,TGI,[14],> 100 µM
same,TGI,[15],> 100 µM
same,TGI,[16],> 100 µM
same,TGI,[59],> 100 µM
same,TGI,[17],> 100 µM
same,TGI,[18],> 100 µM
same,TGI,[19],> 100 µM
same,TGI,[20],> 100 µM
same,TGI,[21],> 100 µM
same,TGI,[22],> 100 µM
same,TGI,[23],> 100 µM
same,TGI,[24],> 100 µM
same,TGI,[25],> 100 µM
same,TGI,[26],> 100 µM
same,TGI,[27],> 100 µM
same,TGI,[28],> 100 µM
same,TGI,[29],> 100 µM
same,TGI,[30],> 100 µM
same,TGI,[31],> 100 µM
same,TGI,[32],> 100 µM
same,TGI,[33],> 100 µM
same,TGI,[34],> 100 µM
same,TGI,[35],> 100 µM
same,TGI,[36],> 100 µM
same,TGI,[37],> 100 µM
same,TGI,[38],> 100 µM
same,TGI,[39],> 100 µM
same,TGI,[40],> 100 µM
same,TGI,[41],> 100 µM
same,TGI,[42],> 100 µM
same,TGI,[43],> 100 µM
same,TGI,[44],> 100 µM
same,TGI,[45],> 100 µM
same,TGI,[46],> 100 µM
same,TGI,[47],> 100 µM
same,TGI,[49],> 100 µM
same,TGI,[50],> 100 µM
same,TGI,[51],> 100 µM
same,TGI,[52],> 100 µM
same,TGI,[53],> 100 µM
same,TGI,[55],> 100 µM
same,TGI,[56],> 100 µM
same,TGI,[57],90.8 µM
same,TGI,[58],> 100 µM
Cc1nc2c(o1)C(=O)c1ccccc1C2=NC1CCCCC1N (stereo not given),TGI,[2],3.82 µM
same,TGI,[3],1.2 µM
same,TGI,[4],3.15 µM
same,TGI,[5],2 µM
same,TGI,[6],1.84 µM
same,TGI,[7],3 µM
same,TGI,[8],2.53 µM
same,TGI,[9],2.89 µM
same,TGI,[10],2.91 µM
same,TGI,[11],> 100 µM
same,TGI,[12],1.32 µM
same,TGI,[13],0.276 µM
same,TGI,[14],1.29 µM
same,TGI,[15],1.01 µM
same,TGI,[16],1.53 µM
same,TGI,[17],2.76 µM
same,TGI,[18],0.66 µM
same,TGI,[19],0.302 µM
same,TGI,[20],3.46 µM
same,TGI,[21],0.252 µM
same,TGI,[22],0.275 µM
same,TGI,[23],1.97 µM
same,TGI,[24],0.343 µM
same,TGI,[25],3.75 µM
same,TGI,[26],2.8 µM
same,TGI,[27],1.46 µM
same,TGI,[28],3.43 µM
same,TGI,[29],2.1 µM
same,TGI,[30],2.92 µM
same,TGI,[31],0.9 µM
same,TGI,[32],1.28 µM
same,TGI,[34],1.38 µM
same,TGI,[35],5.33 µM
same,TGI,[36],3.84 µM
same,TGI,[37],0.564 µM
same,TGI,[38],0.321 µM
same,TGI,[39],3.12 µM
same,TGI,[40],1.21 µM
same,TGI,[41],1.66 µM
same,TGI,[42],2.33 µM
same,TGI,[43],3.08 µM
same,TGI,[44],2.75 µM
same,TGI,[45],3.24 µM
same,TGI,[46],0.313 µM
same,TGI,[48],3.02 µM
same,TGI,[49],0.749 µM
same,TGI,[50],3.18 µM
same,TGI,[51],1.16 µM
same,TGI,[52],0.729 µM
same,TGI,[53],1.86 µM
same,TGI,[54],0.318 µM
same,TGI,[55],1.08 µM
same,TGI,[56],3.12 µM
same,TGI,[57],4.2 µM
same,TGI,[58],2.3 µM
COc1cc(O)c(C(=O)/C=C/c2ccccc2)c(OC)c1,TGI,[1],25.6 µM
same,TGI,[2],20.8 µM
same,TGI,[3],14.4 µM
same,TGI,[4],13.3 µM
same,TGI,[5],20.8 µM
same,TGI,[6],16.7 µM
same,TGI,[7],17.6 µM
same,TGI,[8],21.1 µM
same,TGI,[9],17.4 µM
same,TGI,[10],30 µM
same,TGI,[12],21.3 µM
same,TGI,[13],19.4 µM
same,TGI,[14],16.2 µM
same,TGI,[15],26.8 µM
same,TGI,[16],84.1 µM
same,TGI,[59],32.8 µM
same,TGI,[17],18.2 µM
same,TGI,[18],6.36 µM
same,TGI,[19],25.5 µM
same,TGI,[21],24.2 µM
same,TGI,[22],18.2 µM
same,TGI,[23],14.4 µM
same,TGI,[24],14.7 µM
same,TGI,[25],12.8 µM
same,TGI,[26],21 µM
same,TGI,[27],25 µM
same,TGI,[28],21.6 µM
same,TGI,[29],14.6 µM
same,TGI,[30],22.4 µM
same,TGI,[31],24.2 µM
same,TGI,[32],7.22 µM
same,TGI,[33],6.05 µM
same,TGI,[34],23.8 µM
same,TGI,[35],22.4 µM
same,TGI,[36],19.7 µM
same,TGI,[38],23.6 µM
same,TGI,[39],18.2 µM
same,TGI,[40],10.1 µM
same,TGI,[41],44.7 µM
same,TGI,[42],12.1 µM
same,TGI,[43],28 µM
same,TGI,[44],24.2 µM
same,TGI,[45],> 100 µM
same,TGI,[46],13.1 µM
same,TGI,[47],26.9 µM
same,TGI,[48],14.1 µM
same,TGI,[49],5.17 µM
same,TGI,[50],13.6 µM
same,TGI,[51],11.6 µM
same,TGI,[52],20.1 µM
same,TGI,[53],24.6 µM
same,TGI,[54],17.3 µM
same,TGI,[55],12.8 µM
same,TGI,[56],16.5 µM
same,TGI,[57],10.3 µM
same,TGI,[58],38.5 µM
